The test concerns the target T1, memapsin 2 (Homo sapiens, UniProt P56817).
T1 construct: pET-11 vector-derived residues 1-15 of promemapsin 2-T1 (N, cleaved yes); made in house; host or cells: E. coli
Briefly: Inhibition of memapsin 2 proteolytic activity, fluorogenic substrate FS-2. Type of test: biochemical. As to conditions: for Ki / Ki app: memapsin 2. How it is done: Ki is the inhibition equilibrium constant which indicates the ability of compounds to inhibit the β-secretase activity of memapsin 2 and memapsin 1. […] The K1 value is independent of the substrate, and converted from Ki apparent.
The Vi/Vo values depicted in Table 1 were determined at conditions under which the enzyme and inhibitor concentrations were equal (e.g., about 80 nM, 100 nM).
The relationship of Ki (independent of substrate concentration) to Kiapp is a function of substrate concentration in the assay and the Km for cleavage of the substrate by either memapsin 1 or memapsin 2 by the relationship:
The spontaneously activated memapsin 2 was employed in assays to assess the inhibition of memapsin 2 relative to memapsin 1 by compounds of the invention and in some crystallization studies.
An aliquot of the inhibitor of known concentration in DMSO was diluted into 1.8 ml 0.1 M NaOAc, pH 4.0. DMSO and added to a final concentration of 10% (v/v), and memapsin 2 (final concentration of 80 nM), followed by a 20 minute equilibration at 37° C. Compounds were evaluated for the ability to inhibit memapsin 1 and memapsin 2 at concentrations between about 10 nM and about 10 μm of inhibitor.

Setting [1] is: independent of substrate, converted from Ki apparent, read-out: Ki.
Where [2] appears, read: apparent Ki in presence of substrate FS-2, read-out: Ki app.
The mark [3] stands for this setting: apparent Ki in presence of substrate FS-2.
Setting [4] is: independent of substrate, converted from Ki apparent.

Drawing on patent US20040121947A1, “Compounds which inhibit beta-secretase activity and methods of use thereof” (Oklahoma Medical Research Foundation, priority 2000, published 2004), this text covers Ki, Ki app and Vi/Vo for 36 compounds.

Molecules are shown by their SMILES. Like-named read-outs stand apart in the source and are kept apart here.

T1 sequence (P56817 41-454 limits assumed): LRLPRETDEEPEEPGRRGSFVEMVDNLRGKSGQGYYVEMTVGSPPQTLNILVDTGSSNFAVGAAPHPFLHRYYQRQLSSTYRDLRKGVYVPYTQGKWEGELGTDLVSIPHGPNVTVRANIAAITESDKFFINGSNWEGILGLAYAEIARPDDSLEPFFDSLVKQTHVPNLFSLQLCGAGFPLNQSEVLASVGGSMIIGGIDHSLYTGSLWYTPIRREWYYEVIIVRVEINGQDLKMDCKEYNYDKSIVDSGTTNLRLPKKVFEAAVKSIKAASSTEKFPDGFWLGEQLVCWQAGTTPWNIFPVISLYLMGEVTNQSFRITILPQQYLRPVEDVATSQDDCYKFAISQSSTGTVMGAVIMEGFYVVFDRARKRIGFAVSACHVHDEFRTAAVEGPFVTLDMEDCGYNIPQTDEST

Turning to `CC(C)C[C@H](NC(=O)OC(C)(C)C)[C@@H](O)C[C@@H](C)C(=O)N[C@@H](C)C(=O)NCc1ccccc1` [MMI-001], the Ki under setting [1] amounted to 2370 µM. For the compound `CSCC[C@H](NC(=O)[C@H](C)NC(=O)[C@H](C)C[C@H](O)[C@H](CC(C)C)NC(=O)OC(C)(C)C)C(=O)NCc1ccccc1` [MMI-002], the Ki under setting [1] is 274 µM. `CC(C)C[C@H](NC(=O)OC(C)(C)C)[C@@H](O)C[C@@H](C)C(=O)N[C@@H](C)C(=O)N[C@@H](CCS(C)(=O)=O)C(=O)NCc1ccccc1` [MMI-003]: the Ki under setting [1] stood at 1660 µM. For `CC(C)C[C@H](NC(=O)[C@H](CC(N)=O)NC(=O)[C@@H](NC(=O)OC(C)(C)C)C(C)C)[C@@H](O)C[C@@H](C)C(=O)N[C@@H](C)C(=O)NCc1ccccc1` [MMI-005], the Ki turned out to be 0.126 µM under setting [2] and 0.0789 µM under setting [1]. For `CSCC[C@H](NC(=O)OC(C)(C)C)C(=O)N[C@@H](CC(C)C)[C@@H](O)C[C@@H](C)C(=O)N[C@@H](C)C(=O)NCc1ccccc1` [MMI-006], in that order: 63.3 µM and 40.2 µM. As for `CC(C)C[C@H](NC(=O)[C@H](CCS(C)(=O)=O)NC(=O)OC(C)(C)C)[C@@H](O)C[C@@H](C)C(=O)N[C@@H](C)C(=O)NCc1ccccc1` [MMI-007], the Ki under setting [2] stood at 49.9 µM and the Ki under setting [1] stood at 31.7 µM. In the case of `CSCC[C@H](NC(=O)[C@@H](NC(=O)OC(C)(C)C)C(C)C)C(=O)N[C@@H](CC(C)C)[C@@H](O)C[C@@H](C)C(=O)N[C@@H](C)C(=O)NCc1ccccc1` [MMI-008], the Ki turned out to be 0.0736 µM under setting [2] and 0.046 µM under setting [1].

Take `CC(C)C[C@H](NC(=O)[C@H](CCS(C)(=O)=O)NC(=O)[C@@H](NC(=O)OC(C)(C)C)C(C)C)[C@@H](O)C[C@@H](C)C(=O)N[C@@H](C)C(=O)NCc1ccccc1` [MMI-009]: the Ki under setting [2] was 0.0899 µM and the Ki under setting [1] was 0.0562 µM. For `C=CC[C@H](C[C@H](O)[C@H](CC(C)C)NC(=O)[C@H](CC(N)=O)NC(=O)OC(C)(C)C)C(=O)N[C@H](C(=O)NCc1ccccc1)C(C)C` [MMI-010], in that order: 29.4 µM and 18.7 µM.

Turning to `CC(C)C[C@H](NC(=O)[C@H](CC(N)=O)NC(=O)OC(C)(C)C)[C@@H](O)C[C@@H](C)C(=O)N[C@H](C(=O)NCc1ccccc1)C(C)C` [MMI-011], the Ki is, setting by setting: under setting [2], 4.88 µM; under setting [1], 3.1 µM. For `CC(C)C[C@H](NC(=O)[C@H](CC(N)=O)NC(=O)[C@@H](NC(=O)OC(C)(C)C)C(C)C)[C@@H](O)C[C@@H](C)C(=O)N[C@H](C(=O)NCc1ccccc1)C(C)C` [MMI-012], in that order: 0.0091 µM and 0.00568 µM. The like results for `CSCC[C@H](NC(=O)OC(C)(C)C)C(=O)N[C@@H](CC(C)C)[C@@H](O)C[C@@H](C)C(=O)N[C@H](C(=O)NCc1ccccc1)C(C)C` [MMI-015] were, in that order, 9.04 µM and 5.65 µM. As to `CC(C)C[C@H](NC(=O)[C@H](CCS(C)(=O)=O)NC(=O)OC(C)(C)C)[C@@H](O)C[C@@H](C)C(=O)N[C@H](C(=O)NCc1ccccc1)C(C)C` [MMI-016], the Ki is 5.64 µM under setting [2] and 3.53 µM under setting [1]. For `CC(C)C[C@H](NC(=O)[C@@H](NC(=O)[C@@H](NC(=O)OC(C)(C)C)C(C)C)[C@@H]1CCOC1)[C@@H](O)C[C@@H](C)C(=O)N[C@H](C(=O)NCc1ccccc1)C(C)C` [MMI-020], in that order: 1.61 µM and 1 µM. `C=CC[C@H](C[C@H](O)[C@H](CC(C)C)NC(=O)[C@H](CC(N)=O)NC(=O)[C@@H](NC(=O)OC(C)(C)C)C(C)C)C(=O)N[C@H](C(=O)NCc1ccccc1)C(C)C` [MMI-021]: the Ki under setting [2] came out at 0.112 µM and the Ki under setting [1] was 0.0701 µM. For `CSC[C@H](NC(=O)OC(C)(C)C)C(=O)N[C@@H](CC(C)C)[C@@H](O)C[C@@H](C)C(=O)N[C@H](C(=O)NCc1ccccc1)C(C)C` [MMI-023], in that order: 15.3 µM and 9.55 µM.

For `CC(C)C[C@H](NC(=O)[C@H](CS(C)(=O)=O)NC(=O)OC(C)(C)C)[C@@H](O)C[C@@H](C)C(=O)N[C@H](C(=O)NCc1ccccc1)C(C)C` [MMI-024], the Ki reads like this: under setting [2], 1.44 µM; under setting [1], 0.902 µM. Consider `CSC[C@H](NC(=O)[C@@H](NC(=O)OC(C)(C)C)C(C)C)C(=O)N[C@@H](CC(C)C)[C@@H](O)C[C@@H](C)C(=O)N[C@H](C(=O)NCc1ccccc1)C(C)C` [MMI-025], for which the Ki by setting is: under setting [2], 0.0655 µM; under setting [1], 0.0409 µM. The like results for `CCC[C@H](C[C@H](O)[C@H](CC(C)C)NC(=O)[C@H](CSC)NC(=O)O[C@@H]1C[C@@H]2CCO[C@@H]2C1)C(=O)N[C@H](C(=O)NCc1ccccc1)C(C)C` [MMI-027] were, in that order, 11.5 µM and 7.22 µM. For `CCC[C@H](C[C@H](O)[C@H](CC(C)C)NC(=O)[C@H](CSC)NC(=O)O[C@H]1CO[C@H]2OCC[C@H]21)C(=O)N[C@H](C(=O)NCc1ccccc1)C(C)C` [MMI-028], in that order: 9.87 µM and 6.17 µM. In the case of `CCC[C@H](C[C@H](O)[C@H](CC(C)C)NC(=O)[C@H](CSC)NC(=O)O[C@H]1CCOC1)C(=O)N[C@H](C(=O)NCc1ccccc1)C(C)C` [MMI-029], the Ki was 1.7 µM under setting [2] and 1.06 µM under setting [1]. Turning to `CSCC[C@H](NC(=O)[C@@H](NC(=O)OC(C)(C)C)C(C)C)C(=O)N[C@@H](CC(C)C)[C@@H](O)C[C@@H](CC(F)(F)F)C(=O)N[C@H](C(=O)NCc1ccccc1)C(C)C` [MMI-030], the Ki is 8.52 µM under setting [2] and 5.32 µM under setting [1]. For `CCC[C@H](C[C@H](O)[C@H](CC(C)C)NC(=O)[C@H](CSC)NC(=O)OCc1cccnc1)C(=O)N[C@H](C(=O)NCc1ccccc1)C(C)C` [MMI-031], in that order: 0.864 µM and 0.539 µM.

Consider `CCC[C@H](C[C@H](O)[C@H](CC(C)C)NC(=O)[C@H](CSC)NC(=O)c1cccc(O)c1C)C(=O)N[C@H](C(=O)NCc1ccccc1)C(C)C` [MMI-032], for which the Ki is 1.34 µM under setting [2] and 0.838 µM under setting [1].

As to `CSCC[C@H](NC(=O)[C@@H](NC(=O)OC(C)(C)C)C(C)C)C(=O)N[C@@H](CC(C)C)[C@@H](O)C[C@@H](C)C(=O)N[C@H](C(=O)NCc1ccccc1)C1CCCO1` (stereo partly shown) [MMI-034], the Ki by setting is: under setting [2], 0.223 µM; under setting [1], 0.139 µM. Consider `CC(C)C[C@H](NC(=O)[C@H](CCS(C)(=O)=O)NC(=O)[C@@H](NC(=O)OC(C)(C)C)C(C)C)[C@@H](O)C[C@@H](C)C(=O)N[C@H](C(=O)NCc1ccccc1)C1CCCO1` (stereo partly shown) [MMI-035], for which the Ki under setting [2] was 0.426 µM and the Ki under setting [1] stood at 0.266 µM. As for `CSCC[C@H](NC(=O)[C@@H](NC(=O)OC(C)(C)C)C(C)C)C(=O)N[C@@H](CC(C)C)[C@@H](O)C[C@@H](CC(C)C)C(=O)NC1CCN(Cc2ccccc2)CC1` [MMI-036], under setting [3], the Ki app result is “N.I”. Moreover, the Ki entry under setting [4] is listed as “N.I”. Take `CSCC[C@H](NC(=O)[C@@H](NC(=O)OC(C)(C)C)C(C)C)C(=O)N[C@@H](CC(C)C)[C@@H](O)C[C@@H](CCO)C(=O)N[C@H](C(=O)NCc1ccccc1)C(C)C` [MMI-037]: the Ki under setting [2] was determined as 0.104 µM and the Ki under setting [1] was determined as 0.0648 µM.

`CSCC[C@H](NC(=O)[C@@H](NC(=O)OC(C)(C)C)C(C)C)C(=O)N[C@@H](CC(C)C)[C@@H](O)C[C@@H](CC(N)=O)C(=O)N[C@H](C(=O)NCc1ccccc1)C(C)C` [MMI-038]: the Ki by setting is: under setting [2], 0.106 µM; under setting [1], 0.0662 µM. The Vi/Vo (ratio of initial cleavage velocities of FS-2 with/without compound, enzyme and inhibitor concentrations equal (e.g., about 80 nM, 100 nM)) stood at 0.4. In the case of `CSCC[C@H](NC(=O)OCc1cccnc1)C(=O)N[C@@H](CC(C)C)[C@@H](O)C[C@@H](C)C(=O)N[C@H](C(=O)NCc1ccccc1)C(C)C` [MMI-039], the Ki reads like this: under setting [2], 1.4 µM; under setting [1], 0.873 µM. Turning to `CSCC[C@H](NC(=O)OCc1cccnc1)C(=O)N[C@@H](Cc1ccccc1)[C@@H](O)C[C@@H](C)C(=O)N[C@H](C(=O)NCc1ccccc1)C(C)C` [MMI-040], the Ki runs as follows: under setting [2], 2.07 µM; under setting [1], 1.29 µM. Consider `CSCC[C@H](NC(=O)[C@@H](NC(=O)OC(C)(C)C)C(C)C)C(=O)N[C@@H](CC(C)C)[C@@H](O)C[C@@H](C)C(=O)N[C@H](COCc1ccccc1)C(C)C` [MMI-041], for which the Ki app result under setting [3] was “N.I”. Also, the Ki entry under setting [4] is on record as “N.I”. As for `CSCC[C@H](NC(=O)[C@@H](NC(=O)OC(C)(C)C)C(C)C)C(=O)N[C@@H](CC(C)C)[C@@H](O)C[C@@H](C)C(=O)N[C@H](CO)C(C)C` [MMI-042], the Ki is, setting by setting: under setting [2], 36.5 µM; under setting [1], 22.8 µM. With `CC(C)C[C@H](NC(=O)[C@H](CCS(C)(=O)=O)NC(=O)[C@@H](NC(=O)OC(C)(C)C)C(C)C)[C@@H](O)C[C@@H](C)C(=O)N[C@H](CO)C(C)C` [MMI-043], the Ki is, setting by setting: under setting [2], 49.2 µM; under setting [1], 30.7 µM.

With `CSCC[C@H](NC(=O)[C@@H](NC(=O)OC(C)(C)C)C(C)C)C(=O)N[C@@H](CC(C)C)[C@@H](O)C[C@@H](C)C(=O)N1CCC[C@H]1C(=O)NCc1ccccc1` [MMI-044], the Ki app result under setting [3] is given as “N.I”. In addition, the Ki entry under setting [4] is given as “N.I”. Consider `CC(C)C[C@H](NC(=O)[C@H](CCS(C)(=O)=O)NC(=O)[C@@H](NC(=O)OC(C)(C)C)C(C)C)[C@@H](O)C[C@@H](C)C(=O)N1CCC[C@H]1C(=O)NCc1ccccc1` [MMI-045], for which the Ki app entry under setting [3] is given as “N.I”. Moreover, the Ki entry under setting [4] is given as “N.I”.
